Values quoted from earlier work in US6423719B1, “Method for treating benign prostate hyperplasia” (Upsher-Smith Laboratories, Inc., priority 1999, dated 2002).

Columns and labels:
[1] = for half life (plasma / elimination) / bioavailability: in vivo
5α-reductase = target: T1, 5α-reductase (Homo sapiens, UniProt P31213); details: stable enzyme complex with 5α-reductase
T1 sequence (P31213 1-254): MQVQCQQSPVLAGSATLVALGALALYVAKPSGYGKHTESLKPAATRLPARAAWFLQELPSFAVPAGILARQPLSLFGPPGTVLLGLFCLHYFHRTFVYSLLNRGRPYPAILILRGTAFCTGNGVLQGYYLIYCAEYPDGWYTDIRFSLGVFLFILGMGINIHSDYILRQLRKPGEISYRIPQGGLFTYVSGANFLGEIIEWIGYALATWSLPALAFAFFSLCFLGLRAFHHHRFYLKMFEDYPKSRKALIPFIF

[2] = in vivo

COc1cc2nc(N(C)CCCNC(=O)C3CCCO3)nc(N)c2cc1OC (stereo not drawn) [Alfuzosin]
half life (plasma / elimination) [1]: about 5 hours

CC(C)(C)NC(=O)[C@H]1CC[C@H]2[C@@H]3CC[C@H]4NC(=O)C=C[C@]4(C)[C@H]3CC[C@]12C [Finasteride, N-(2-methyl-2-propyl)3-oxo-4-aza-5α-androst-1-ene-17β-carboxamide]
turnover from the enzyme complex (t½) (5α-reductase): ~30 days

O=C(NC1CCN(CCc2c[nH]c3ccccc23)CC1)c1ccccc1 [Indoramin]
bioavailability [1]: less than 30% | half life (plasma / elimination) [1]: about 5 hours

CC(COc1ccccc1)N(CCCl)Cc1ccccc1 (stereo not drawn) [Phenoxybenzamine]
half life ([1]; administered intravenously): approximately 24 hours

COc1cc2nc(N3CCN(C(=O)C4CCCO4)CC3)nc(N)c2cc1OC (stereo not drawn) [Terazosin]
bioavailability [1]: greater than 90% | half life (plasma / elimination) [1]: approximately 12 hours | water solubility: more water soluble than prazoin

Cn1c(=O)c2[nH]cnc2n(C)c1=O [theophylline]
dose excreted unchanged in the urine [2]: about 10%
